Source: patent publication US20070160981A1 (priority 2005, published 2007)

Molecular target: T1, SARS-CoV PLP2 (Severe acute respiratory syndrome coronavirus, UniProt P0C6U8)
Assay type: biochemical
Settings: not given

Compound	found in the screen for inhibitor of SARS-CoV PLP2	effects on the activity of SARS-CoV PLP2	inhibition of SARS-CoV PLP2, in words	IC50 [µM]	effective in inhibiting SARS-CoV PLP2
Nc1nc(S)c2[nH]cnc2n1 [2-amino-6-mercaptopurine]	found	–	–	–	–
Sc1ncnc2nc[nH]c12 [6-mercaptopurine]	found	–	–	–	–
Cn1cnc([N+](=O)[O-])c1Sc1ncnc2nc[nH]c12 [Azathioprine]	found	–	–	–	–
[Ca] [Ca]	–	no effects	–	–	–
O=NN(CCCl)C(=O)NCCCl [Carmustine]	found	–	–	–	–
[Co] [Co]	–	no effects	–	–	–
S=C([S-])N(Cc1ccccc1)Cc1ccccc1.S=C([S-])N(Cc1ccccc1)Cc1ccccc1.[Zn+2] [Dibenzyl dithiocarbamic Zn]	–	–	effective in inhibiting	–	–
O=C([O-])c1ccccc1-c1c2cc(Br)c(=O)cc-2oc2[c]([Hg+])c([O-])c(Br)cc12.[Na+].[Na+].[OH-] [Merbromin]	found	–	–	–	–
[Mg] [Mg]	–	no effects	–	–	–
[Mn] [Mn]	–	no effects	–	–	–
CCN(C(=S)[S-])c1ccccc1.CCN(C(=S)[S-])c1ccccc1.[Zn+2] [N-ethyl-N-phenyldithiocarbamic acid Zn]	–	–	effective in inhibiting	–	–
[Ni] [Ni]	–	no effects	–	–	–
CN(C)C(=S)SSC(=S)N(C)C [Thiram]	found	–	–	–	–
[Zn+2] [Zinc ion]	–	–	–	1.3	–
[O-]n1ccccc1=S.[O-]n1ccccc1=S.[Zn+2] [hydroxypridine-2-thione Zn]	–	–	effective in inhibiting	–	–
cystatin	–	–	–	–	none of them was effective

Same assay, conditions: 0.1 mM

Compound	effective in inhibiting SARS-CoV PLP2
CC(=O)N[C@@H](CC(C)C)C(=O)N[C@@H](CC(C)C)C(=O)N[C@H](C=O)CCCNC(=N)N [leupeptin]	none of them was effective

Same assay, conditions: 1 mM

Compound	effective in inhibiting SARS-CoV PLP2
CCN1C(=O)C=CC1=O [N-ethylmaleimide]	effective
CC(C)C[C@H](NC(=O)[C@@H](NC(=O)N[C@@H](Cc1ccccc1)C(=O)O)[C@@H]1CCN=C(N)N1)C(=O)N[C@H](C=O)Cc1ccccc1 [chymostatin]	none of them was effective

Molecular target: T1, SARS-CoV PLP2
Settings: not given
Remark: another data set of the same source

Compound	percentage of the cleavage after 2 hours of digestion [%]	percentage of the cleavage after 12 hours of digestion [%]	Cleavage % 2 h [%]	Cleavage % 2 hours [%]	Cleavage % 12 h [%]	Cleavage % 12 hours [%]
FRLKGGAPI [FRLKGG-API]	36	85	–	–	–	–
FRLKGGAPIK [FRLKGG-APIK]	50	100	–	–	–	–
FRLKGGAPIKGV	70	100	70.1 ± 7.4	70 ± 7	100 ± 0.0	100
ISLKGGKIVSTC [Gly2740-Lys2741]	7	29	–	7 ± 1	–	29 ± 4
LKGGAPIK	11	45	–	–	–	–
NNVFRLKGGAPIKGVTFG [N N V F R L K G G A P I K G V T F G]	–	–	–	60.5 ± 0.7	–	100 ± 0.0
NVFRLKGGAPIKGVTF [N V F R L K G G A P I K G V T F]	–	–	–	63.0 ± 1.4	–	100 ± 0.0
RLKGGAPIKG [RLKGG-APIKG]	–	56	–	–	–	–

Same assay, conditions: pH 6.8

Compound	Cleavage % 2 hours [%]	Cleavage % 12 hours [%]
FRLKGGAPI [FRLKGG-API]	36.2 ± 6.4	85.1 ± 4.9
FRLKGGAPIK [FRLKGG-APIK]	49.9 ± 2.6	100 ± 0.0
FRLKGGAPIKGV	70.1 ± 7.4	100 ± 0.0
LKGGAPIK	11.4 ± 4.3	44.7 ± 3.5
RLKGGAPIKG [RLKGG-APIKG]	14.8 ± 4.1	56.4 ± 5.6
VFRLKGGAPIK	52.9 ± 3.5	100 ± 0.0
VFRLKGGAPIKGVT [V F R L K G G A P I K G V T]	67.6 ± 9.0	100 ± 0.0
